# Test results: US6528275B1, “Substrates and inhibitors of proteolytic enzymes” (Peptide Therapeutics Limited, priority 1996, dated 2003)
# Non-standard residues stand in square brackets, D forms with d. Residues, ends and D or L forms follow the SMILES beside them. *: point of attachment. Tyr(3-NO2) = N[C@@H](Cc1ccc(O)c([N+](=O)[O-])c1)C(=O)O; 3Pal = N[C@@H](Cc1cccnc1)C(=O)O; hLeu = CC(C)CC[C@H](N)C(=O)O; Nle = CCCC[C@H](N)C(=O)O; Ac5c = NC1(C(=O)O)CCCC1; 2Abz = Nc1ccccc1C(=O)O; Bz = O=C(c1ccccc1)*
# Target: T1, Der pI (Dermatophagoides pteronyssinus, UniProt P08176)
# T1 construct: tissue SmithKline-Beecham, U.K (crude mite extract); host or cells: crude house dust mite extract
# T1 sequence (P08176 99-320): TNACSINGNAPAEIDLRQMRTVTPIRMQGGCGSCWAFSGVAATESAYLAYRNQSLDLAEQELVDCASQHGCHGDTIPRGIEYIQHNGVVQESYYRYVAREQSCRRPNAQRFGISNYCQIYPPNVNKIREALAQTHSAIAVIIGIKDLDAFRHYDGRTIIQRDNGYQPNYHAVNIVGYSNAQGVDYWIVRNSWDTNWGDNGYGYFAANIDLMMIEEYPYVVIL
# Test: Der pI substrate assay with FRET peptides (fluorescence, Km, kcat/Km)
# Assay type: biochemical, house dust mite
# Settings: purified Der pI; peptides SEQ ID Nos. 1-76; read-out: Measured Km
# Protocol: (§1) Using the general techniques described above, the following compounds were prepared and assayed as potential substrates against Der pI purified as described above.
# (§2) Each mixture of 20 compounds in the libraries of the apparatus described herein was screened at a concentration of 1.0 μM per compound in an assay against the cysteinyl protease Der pI.
# (§3) Plate assays were carried out in 96 well plate format, using 0.1 ug of Der pI per 100 μL assay volume in each well and using 20 μM of the substrate. All assays were performed in Assay Buffer (AB; 50 mM potassium phosphate, pH 8.25 containing 1 mM ethylenediaminetetraacetic acid (EDTA) and 1 mM dithiothreitol (DTT). The Der pI enzyme is pre-activated by addition of DTT and this in incubated at room temperature for 5 min. prior to initiation of the assay. As an example for the screening methodology, each well contains a 5 μL of a 20 μM solution of the test compound in DMSO, 10 μL of a 200 μM aqueous solution of the substrate, 2, and 85 μL of Der pI in AB is added to initiate the reaction. Enzyme activity is monitored by fluorescence using 320 nm for excitation and 420 nm for the emission wavelengths using a Labsystems Fluroskan Ascent machine. Kinetic measurements were carried out using a Hitachi F-4500 Fluorescence Spectrophotometer.
row,Km [µM],Compound
1,> 15,CC(C)CC[C@H](NC(=O)[C@H](C)NC(=O)[C@H](CCCCN)NC(=O)c1ccccc1N)C(=O)N[C@@H](CO)C(=O)N[C@@H](Cc1ccc(O)c([N+](=O)[O-])c1)C(=O)N[C@@H](CC(=O)O)C(N)=O [Abz-Lys-Ala-hLeu-Ser-Tyr(NO2)-Asp-NH2] (H-[2Abz]KA[hLeu]S[Tyr(3-NO2)]D-NH2)
2,> 10,CC(C)CC[C@H](NC(=O)[C@H](C)NC(=O)[C@H](Cc1cccnc1)NC(=O)c1ccccc1N)C(=O)N[C@@H](CO)C(=O)N[C@@H](Cc1ccc(O)c([N+](=O)[O-])c1)C(=O)N[C@@H](CC(=O)O)C(N)=O [Abz-3pyr-Ala-hLeu-Ser-Tyr(NO2)-Asp-NH2] (H-[2Abz][3Pal]A[hLeu]S[Tyr(3-NO2)]D-NH2)
3,> 20,CC(C)[C@H](NC(=O)c1ccccc1N)C(=O)N[C@@H](C)C(=O)N[C@@H](Cc1c[nH]cn1)C(=O)N[C@@H](CO)C(=O)N[C@@H](Cc1ccc(O)c([N+](=O)[O-])c1)C(=O)N[C@@H](CC(=O)O)C(N)=O [Abz-Val-Ala-His-Ser-Tyr(NO2)-Asp-NH2] (H-[2Abz]VAHS[Tyr(3-NO2)]D-NH2)

row,Compound,Km [µM]
1,Abz-Bip-Ala-hLeu-Abu-Tyr(NO2)-Asp-NH2,1.7

# Target: T1, Der pI
# Test: as above
# Assay type: biochemical, house dust mite
# Parameters: key: NS indicates that the peptide was not hydrolysed by Der pI.; NM indicated that the peptide was a substrate for Der pI, but the Km was not measured.; NM^a indicates that the peptide was a substrate for Der pI, and its cleavage was followed by HPLC-MS showing hydrolysis to occur between-Nle-Ser-
# Settings: purified Der pI; peptides SEQ ID Nos. 1-76
# Protocol: as §1, §2, §3
row,Compound,substrate or not substrate for Der pI (symbols in Measured Km)
1,CC(C)CC[C@H](NC(=O)C1(NC(=O)[C@@H](NC(=O)c2ccccc2N)C(C)C)CCCC1)C(=O)N[C@@H](CO)C(=O)N[C@@H](Cc1ccc(O)c([N+](=O)[O-])c1)C(=O)N[C@@H](CC(=O)O)C(N)=O [Abz-Val-ACP-hLeu-Ser-Tyr(NO2)-Asp-NH2] (H-[2Abz]V[Ac5c][hLeu]S[Tyr(3-NO2)]D-NH2),NS
2,CCCC[C@H](NC(=O)[C@H](C)NC(=O)c1ccccc1N)C(=O)N[C@@H](CO)C(=O)N[C@@H](Cc1ccc(O)c([N+](=O)[O-])c1)C(=O)N[C@@H](CC(=O)O)C(N)=O [Abz-Ala-Nle-Ser-Tyr(NO2)-Asp-NH2] (H-[2Abz]A[Nle]S[Tyr(3-NO2)]D-NH2),NM
3,CCCC[C@H](NC(=O)[C@H](C)NC(=O)[C@@H](NC(C)=O)C(C)C)C(=O)N[C@@H](CO)C(=O)N[C@@H](Cc1ccc(O)c([N+](=O)[O-])c1)C(N)=O [Ac-Val-Ala-Nle-Ser-Tyr(NO2)-NH2] (Ac-VA[Nle]S[Tyr(3-NO2)]-NH2),NS
4,CCCC[C@H](NC(=O)[C@H](C)NC(=O)[C@@H](NC(=O)c1ccccc1)C(C)C)C(=O)N[C@@H](CO)C(=O)N[C@@H](Cc1ccc(O)c([N+](=O)[O-])c1)C(N)=O [Bz-Val-Ala-Nle-Ser-Tyr(NO2)-NH2] (Bz-VA[Nle]S[Tyr(3-NO2)]-NH2),NM^a

# Target: T1, Der pI
# Test: as above
# Assay type: biochemical, house dust mite
# Parameters: key: NS-Not Substrate: Not hydrolysed by Der pI; NM-Substrate but not measured: Substrate for Der pI but not measured
# Settings: purified Der pI; peptides SEQ ID Nos. 77-85
# Protocol: as §1, §2, §3
row,Compound,substrate or not substrate for Der pI (symbols in Measured Km)
1,Abz-Cmpi-Nle-Ser-Tyr(NO2)-Asp-NH2,NS
2,Bz-Val-Ala-Statine-Ser-eAha-NH2,NS
3,Abz-Deg-Ala-Nle-Ser-Tyr(NO2)-Asp-NH2,NS
4,Abz-Val-Aib-Nle-Ser-Tyr(NO2)-Asp-NH2,NS
5,Abz-Val-Ala-Aib-Ser-Tyr(NO2)-Asp-NH2,NS
6,Abz-Val-(NMe)Ala-Nle-Ser-Tyr(NO2)-Asp-NH2,NS
7,nBu-D.Ser-D.Nle-D.Ala-D.Val-p.Aba-NH2,NS
8,Abz-Val-Ala-(NMe)Nle-Ser-Tyr(NO2)-Asp-NH2,NS
9,Abz-p.Aba-Nle-Ser-Tyr(NO2)-Asp-NH2,NS
